Test results taken from patent US8952024B2, “Herbicidal pyrimidone derivatives” (E I du Pont de Nemours and Company, priority 2009, dated 2015).

Assays:
Assay in all cases: Test B pre-/postemergence plant response
Type in all cases: in vivo
[1] = tested on: large crabgrass (Digitaria sanguinalis)
How it was run: (§1)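 Greenhouse herbicide screen. Pre- and postemergence (1- to 4-leaf) spray of compound in solvent/surfactant mixture; loam–sand soil for pre, peat/vermiculite medium for post. Visual control rating 0–100 at 13 to 15 days after treatment.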

[2] = tested on: lambsquarters (Chenopodium album)
How it was run: as §1

[3] = tested on: johnsongrass (Sorghum halepense)
How it was run: as §1

[4] = tested on: woolly cupgrass (Eriochloa villosa)
How it was run: as §1

[5] = tested on: giant foxtail (Setaria faberii)
How it was run: as §1

[6] = tested on: velvetleaf (Abutilon theophrasti)
How it was run: as §1

[7] = tested on: downy bromegrass (Bromus tectorum)
How it was run: as §1

[8] = tested on: green foxtail (Setaria viridis)
How it was run: as §1

[9] = tested on: yellow nutsedge (Cyperus esculentus)
How it was run: as §1

[10] = tested on: wheat (Triticum aestivum)
How it was run: as §1

[11] = tested on: goosegrass (Eleusine indica)
How it was run: as §1

[12] = tested on: pigweed (Amaranthus retroflexus)
How it was run: as §1

[13] = tested on: kochia (Kochia scoparia)
How it was run: as §1

[14] = 31 g ai/ha, postemergence, scale 0 to 100, 0 is no effect, 100 is complete control
[15] = 250 g ai/ha, Preemergence, 0 to 100 scale
[16] = Postemergence, 62 g ai/ha, scale 0 (no effect) to 100 (complete control), 13 to 15 days
[17] = Postemergence, 125 g ai/ha, visual rating after 13 to 15 days, scale 0 (no effect) to 100 (complete control)
[18] = Postemergence, 250 g ai/ha, scale 0 to 100 (0 no effect, 100 complete control)
[19] = Preemergence, 31 g ai/ha, scale 0 to 100 (0 no effect, 100 complete control)
[20] = Preemergence, 62 g ai/ha, scale 0 to 100 (0 no effect, 100 complete control)
[21] = Preemergence, 125 g ai/ha, scale 0 to 100, 0 no effect, 100 complete control

O=C1CCCC(O)=C1C(=O)c1cnc(-c2ccccc2)n(CC2CCCO2)c1=O (stereo not shown) [Compound 59]
Plant response rating, Crabgrass, Large [1, 14]: 80 | Plant response rating, Crabgrass, Large [1, 15]: 98 | Plant response rating, Crabgrass, Large [1, 16]: 85 | Plant response rating, Crabgrass, Large [1, 17]: 95 | Plant response rating, Crabgrass, Large [1, 18]: 100 | Plant response rating, Crabgrass, Large [1, 19]: 55 | Plant response rating, Crabgrass, Large [1, 20]: 95 | Plant response rating, Crabgrass, Large [1, 21]: 98 | Plant response rating, Lambsquarters [2, 14]: 95 | Plant response rating, Lambsquarters [2, 15]: 100 | Plant response rating, Lambsquarters [2, 16]: 98 | Plant response rating, Lambsquarters [2, 17]: 100 | Plant response rating, Lambsquarters [2, 18]: 100 | Plant response rating, Lambsquarters [2, 19]: 98 | Plant response rating, Lambsquarters [2, 20]: 100 | Plant response rating, Lambsquarters [2, 21]: 100 | Plant response rating, Johnsongrass [3, 15]: 90 | Plant response rating, Johnsongrass [3, 16]: 75 | Plant response rating, Johnsongrass [3, 17]: 100 | Plant response rating, Johnsongrass [3, 18]: 100 | Plant response rating, Johnsongrass [3, 21]: 80 | Plant response rating, Cupgrass, Woolly [4, 14]: 75 | Plant response rating, Cupgrass, Woolly [4, 15]: 85 | Plant response rating, Cupgrass, Woolly [4, 16]: 75 | Plant response rating, Cupgrass, Woolly [4, 17]: 90 | Plant response rating, Cupgrass, Woolly [4, 18]: 95 | Plant response rating, Cupgrass, Woolly [4, 19]: 10 | Plant response rating, Cupgrass, Woolly [4, 20]: 65 | Plant response rating, Cupgrass, Woolly [4, 21]: 65 | Plant response rating, Foxtail, Giant [5, 14]: 75 | Plant response rating, Foxtail, Giant [5, 15]: 75 | Plant response rating, Foxtail, Giant [5, 16]: 90 | Plant response rating, Foxtail, Giant [5, 17]: 95 | Plant response rating, Foxtail, Giant [5, 18]: 95 | Plant response rating, Foxtail, Giant [5, 19]: 0 | Plant response rating, Foxtail, Giant [5, 20]: 0 | Plant response rating, Foxtail, Giant [5, 21]: 60 | Plant response rating, Velvetleaf [6, 14]: 85 | Plant response rating, Velvetleaf [6, 16]: 90 | Plant response rating, Velvetleaf [6, 17]: 95 | Plant response rating, Velvetleaf [6, 18]: 98 | Plant response rating, Velvetleaf [6, 19]: 75 | Plant response rating, Velvetleaf [6, 20]: 90 | Plant response rating, Velvetleaf [6, 21]: 100 | Plant response rating, Bromegrass, Downy [7, 14]: 5 | Plant response rating, Bromegrass, Downy [7, 15]: 0 | Plant response rating, Bromegrass, Downy [7, 16]: 30 | Plant response rating, Bromegrass, Downy [7, 17]: 35 | Plant response rating, Bromegrass, Downy [7, 18]: 45 | Plant response rating, Bromegrass, Downy [7, 19]: 0 | Plant response rating, Bromegrass, Downy [7, 20]: 0 | Plant response rating, Bromegrass, Downy [7, 21]: 0 | Plant response rating, Foxtail, Green [8, 14]: 50 | Plant response rating, Foxtail, Green [8, 15]: 98 | Plant response rating, Foxtail, Green [8, 16]: 70 | Plant response rating, Foxtail, Green [8, 17]: 70 | Plant response rating, Foxtail, Green [8, 18]: 70 | Plant response rating, Foxtail, Green [8, 20]: 70 | Plant response rating, Foxtail, Green [8, 21]: 90 | Plant response rating, Nutsedge, Yellow [9, 14]: 45 | Plant response rating, Nutsedge, Yellow [9, 16]: 60 | Plant response rating, Nutsedge, Yellow [9, 17]: 70 | Plant response rating, Nutsedge, Yellow [9, 18]: 75 | Plant response rating, Nutsedge, Yellow [9, 19]: 55 | Plant response rating, Nutsedge, Yellow [9, 20]: 65 | Plant response rating, Nutsedge, Yellow [9, 21]: 85 | Plant response rating, Wheat [10, 14]: 0 | Plant response rating, Wheat [10, 16]: 5 | Plant response rating, Wheat [10, 17]: 10 | Plant response rating, Wheat [10, 18]: 60 | Plant response rating, Wheat [10, 19]: 0 | Plant response rating, Wheat [10, 20]: 0 | Plant response rating, Wheat [10, 21]: 0 | Plant response rating, Goosegrass [11, 14]: 75 | Plant response rating, Goosegrass [11, 15]: 100 | Plant response rating, Goosegrass [11, 16]: 80 | Plant response rating, Goosegrass [11, 17]: 95 | Plant response rating, Goosegrass [11, 18]: 95 | Plant response rating, Goosegrass [11, 19]: 98 | Plant response rating, Goosegrass [11, 20]: 98 | Plant response rating, Goosegrass [11, 21]: 100 | Plant response rating, Pigweed [12, 16]: 100 | Plant response rating, Pigweed [12, 17]: 100 | Plant response rating, Pigweed [12, 18]: 100 | Plant response rating, Pigweed [12, 19]: 90 | Plant response rating, Pigweed [12, 20]: 100 | Plant response rating, Pigweed [12, 21]: 100 | Plant response rating, Kochia [13, 15]: 98 | Plant response rating, Kochia [13, 16]: 10 | Plant response rating, Kochia [13, 17]: 45 | Plant response rating, Kochia [13, 18]: 75 | Plant response rating, Kochia [13, 19]: 0 | Plant response rating, Kochia [13, 20]: 45 | Plant response rating, Kochia [13, 21]: 60

CCCCc1ncc(C(=O)C2=C(O)CCCC2=O)c(=O)n1-c1cccc(C)c1 [Compound 63]
Plant response rating, Crabgrass, Large [1, 14]: 70 | Plant response rating, Crabgrass, Large [1, 15]: 100 | Plant response rating, Crabgrass, Large [1, 16]: 75 | Plant response rating, Crabgrass, Large [1, 17]: 80 | Plant response rating, Crabgrass, Large [1, 18]: 90 | Plant response rating, Crabgrass, Large [1, 19]: 50 | Plant response rating, Crabgrass, Large [1, 20]: 85 | Plant response rating, Crabgrass, Large [1, 21]: 100 | Plant response rating, Lambsquarters [2, 15]: 100 | Plant response rating, Lambsquarters [2, 16]: 95 | Plant response rating, Lambsquarters [2, 17]: 98 | Plant response rating, Lambsquarters [2, 18]: 98 | Plant response rating, Lambsquarters [2, 19]: 98 | Plant response rating, Lambsquarters [2, 20]: 98 | Plant response rating, Lambsquarters [2, 21]: 100 | Plant response rating, Johnsongrass [3, 15]: 60 | Plant response rating, Johnsongrass [3, 16]: 10 | Plant response rating, Johnsongrass [3, 17]: 10 | Plant response rating, Johnsongrass [3, 18]: 15 | Plant response rating, Johnsongrass [3, 19]: 0 | Plant response rating, Johnsongrass [3, 20]: 0 | Plant response rating, Johnsongrass [3, 21]: 55 | Plant response rating, Cupgrass, Woolly [4, 14]: 50 | Plant response rating, Cupgrass, Woolly [4, 15]: 10 | Plant response rating, Cupgrass, Woolly [4, 16]: 60 | Plant response rating, Cupgrass, Woolly [4, 17]: 65 | Plant response rating, Cupgrass, Woolly [4, 18]: 65 | Plant response rating, Cupgrass, Woolly [4, 19]: 0 | Plant response rating, Cupgrass, Woolly [4, 20]: 0 | Plant response rating, Cupgrass, Woolly [4, 21]: 0 | Plant response rating, Foxtail, Giant [5, 14]: 60 | Plant response rating, Foxtail, Giant [5, 15]: 10 | Plant response rating, Foxtail, Giant [5, 16]: 65 | Plant response rating, Foxtail, Giant [5, 17]: 65 | Plant response rating, Foxtail, Giant [5, 18]: 80 | Plant response rating, Foxtail, Giant [5, 19]: 0 | Plant response rating, Foxtail, Giant [5, 20]: 0 | Plant response rating, Foxtail, Giant [5, 21]: 0 | Plant response rating, Velvetleaf [6, 14]: 95 | Plant response rating, Velvetleaf [6, 16]: 98 | Plant response rating, Velvetleaf [6, 17]: 98 | Plant response rating, Velvetleaf [6, 18]: 98 | Plant response rating, Velvetleaf [6, 19]: 75 | Plant response rating, Velvetleaf [6, 20]: 90 | Plant response rating, Velvetleaf [6, 21]: 100 | Plant response rating, Bromegrass, Downy [7, 14]: 10 | Plant response rating, Bromegrass, Downy [7, 15]: 0 | Plant response rating, Bromegrass, Downy [7, 16]: 20 | Plant response rating, Bromegrass, Downy [7, 17]: 20 | Plant response rating, Bromegrass, Downy [7, 18]: 40 | Plant response rating, Bromegrass, Downy [7, 19]: 0 | Plant response rating, Bromegrass, Downy [7, 20]: 0 | Plant response rating, Bromegrass, Downy [7, 21]: 0 | Plant response rating, Foxtail, Green [8, 14]: 60 | Plant response rating, Foxtail, Green [8, 15]: 30 | Plant response rating, Foxtail, Green [8, 16]: 70 | Plant response rating, Foxtail, Green [8, 17]: 70 | Plant response rating, Foxtail, Green [8, 18]: 90 | Plant response rating, Foxtail, Green [8, 19]: 0 | Plant response rating, Nutsedge, Yellow [9, 14]: 20 | Plant response rating, Nutsedge, Yellow [9, 16]: 20 | Plant response rating, Nutsedge, Yellow [9, 17]: 50 | Plant response rating, Nutsedge, Yellow [9, 18]: 60 | Plant response rating, Nutsedge, Yellow [9, 19]: 10 | Plant response rating, Nutsedge, Yellow [9, 20]: 15 | Plant response rating, Nutsedge, Yellow [9, 21]: 25 | Plant response rating, Wheat [10, 14]: 0 | Plant response rating, Wheat [10, 16]: 0 | Plant response rating, Wheat [10, 17]: 0 | Plant response rating, Wheat [10, 18]: 10 | Plant response rating, Wheat [10, 19]: 0 | Plant response rating, Wheat [10, 20]: 0 | Plant response rating, Wheat [10, 21]: 0 | Plant response rating, Goosegrass [11, 14]: 70 | Plant response rating, Goosegrass [11, 15]: 100 | Plant response rating, Goosegrass [11, 16]: 70 | Plant response rating, Goosegrass [11, 17]: 70 | Plant response rating, Goosegrass [11, 18]: 75 | Plant response rating, Goosegrass [11, 19]: 90 | Plant response rating, Goosegrass [11, 20]: 98 | Plant response rating, Goosegrass [11, 21]: 100 | Plant response rating, Pigweed [12, 14]: 85 | Plant response rating, Pigweed [12, 16]: 95 | Plant response rating, Pigweed [12, 17]: 95 | Plant response rating, Pigweed [12, 18]: 100 | Plant response rating, Pigweed [12, 19]: 95 | Plant response rating, Pigweed [12, 20]: 98 | Plant response rating, Pigweed [12, 21]: 100 | Plant response rating, Kochia [13, 14]: 10 | Plant response rating, Kochia [13, 15]: 100 | Plant response rating, Kochia [13, 16]: 25 | Plant response rating, Kochia [13, 17]: 25 | Plant response rating, Kochia [13, 18]: 65 | Plant response rating, Kochia [13, 19]: 0 | Plant response rating, Kochia [13, 20]: 100 | Plant response rating, Kochia [13, 21]: 100
